Assays:
[1] = system: h-TELO-(D) (DNA, G4) GGGTTAGGGTTAGGGTTAGGG; test: 1H NMR titration (imino region); conditions: 25 mM Tris-HCl, pH 7.4, 298 K, 100 µM DNA
[2] = system: c-MYC-(D) (DNA, G4) TGAGGGTGGGTAGGGTGGGTAA; test: 1H NMR titration (imino region); conditions: 25 mM Tris-HCl, pH 7.4, 298 K, 100 µM DNA, binds minor conformation
[3] = system: c-MYC-(A) (DNA, G4) TGAGGGTGGGTAGGGTGGGTAA; test: FRET melting; conditions: 0.2 µM BTC, SD ±5%
[4] = system: ds DNA (DNA, hairpin, HEG (hexaethylene glycol) linker between 10 and 11) TATAGCTATATATAGCTATA; test: FRET melting; conditions: 1 µM BTC, highest tested
[5] = system: h-TELO-(A) (DNA, G4) GGGTTAGGGTTAGGGTTAGGG; test: FRET melting; conditions: 0.4 µM BTC, SD ±5%
[6] = K+ (50 mM potassium cacodylate), pH 7.4, pre-annealed
[7] = none (K+-free, MQ water), pH ~7

- binding ([1]; K+ (100 mM KCl), weak shift perturbations): yes
- binding ([1]; none (K+-free), partial folding promoted): yes
- binding ([2]; K+ (100 mM KCl)): yes
- binding ([2]; none (K+-free)): yes
- ΔTm [3, 6]: 24.0 °C
- ΔTm [3, 7]: 23.5 °C
- ΔTm ([4]; K+ (50 mM potassium cacodylate), pH 7.4): 3 °C
- ΔTm [4, 7]: 2.9 °C
- ΔTm [5, 6]: 38.7 °C
- ΔTm [5, 7]: 38.5 °C
SMILES: CN(C)CCCNC(=O)c1ccc(-n2cc(-c3ccc4[nH]c5ccc(-c6cn(-c7ccc(C(=O)NCCCN(C)C)cc7)nn6)cc5c4c3)nn2)cc1

From article PMC6006475 (2016)
